In patent publication US9447086B2, “6-amino acid heteroaryldihydropyrimidines for the treatment and prophylaxis of hepatitis B virus infection” (priority 2012, dated 2016):
Values after ≈ are worked out from the molar mass of the structure shown. Like-named read-outs stand apart in the source and are kept apart here.

Columns and labels:
HBV = assay: Anti-HBV activity in vitro in HepG2.2.15 cells (extracellular HBV DNA by qPCR); assay type: cell-based, Hepatitis B virus; details: Hepatitis B virus
Excerpt: HepG2.2.15 and HepDE19 are stably-transfected cell lines containing the HBV genome. Both cell lines are derived from the hepatoblastoma cell line Hep G2 (American Type Culture Collection, ATCC® HB-8065™) by the published procedures described in references: MA Selles et al. Proc. Natl. Acad. Sci. USA 1987, 84, 1005-1009 and H Guo et al. Journal of Virology 2007, 81, 12472-12484, respectively. Both cell lines were maintained in Dulbecco's modified Eagle's medium (DMEM)-F12 medium supplemented with 10% fetal bovine serum, 100 U/mL penicillin, 100 μg/mL streptomycin, and 0.5 mg/mL of G418.
While HepG2.2.15 cells constitutively support HBV replication and production of virus particles, HepDE19 cells are inducible by tetracycline. Addition of 1 μg/mL tetracycline in culture medium suppresses HBV replication in HepDE19 cells, whereas switching to tetracycline-free medium resumes this process.
HepG2.2.15 cells were seeded into 96-well plates (3×10^4 cells in 100 μl media per well) and incubated overnight at 37° C. The test compounds were serially half-log diluted in DMSO, then diluted 100 times in culture media. 100 μL diluted compounds were added into the plates to reach 0.5% final concentration of DMSO in every well. Five days after compound treatment, culture supernatant was collected for further analysis.
For quantitative PCR detection of extracellular HBV DNA, 100 μL culture supernatant was collected and processed in MagNA Pure 96 Nucleic Acid Purification System (Roche Applied Science) for viral DNA extraction. The extracted samples were subjected to HBV DNA quantification by qPCR.
The compounds of the present invention were tested for their capacity to inhibit a HBV activity and activation as described herein.

[1] = Lyophilisation solubility assay (Lysa); assay type: physicochemical; details: phosphate buffer, pH 6.5, aqueous buffer, thermodynamic from solid
Method: The aqueous solubility is an important physico-chemical property that plays a significant role in various physical and biological processes. It is desirable to have good solubility which enables good permeability and gastric and intestinal absorption, linear dose proportionality, less PK variability, and easy formulation for PD/PK studies. […] Lyophilisation solubility assay (Lysa) is a well adopted high throughput assay to measure compound solubility in industry.
Samples are prepared in duplicate from 10 mM DMSO stock solutions. After evaporation of DMSO with a centrifugal vacuum evaporator, the residue is solved in 0.05 M phosphate buffer (pH 6.5), stirred for one hour and shaken for two hours. After one night, the solutions is filtered using a microtiter filter plate and the filtrate and its 1/10 dilution are then analyzed by direct UV measurement or by HPLC-UV. […] The results are in μg/mL.

[2] = Metabolic stability study in human microsome; assay type: in vitro ADME
Method: Human Microsomes were preincubated with test compound for 10 min at 37° C. in 100 mM phosphate buffer, pH 7.4. The reactions were initiated by adding NADPH or NADPH regenerating system to give a final incubation volume of 400 μL. For NADPH system, the final incubations contained 1 μM test compound, 0.5 mg/mL liver microsomal protein, 1 mM NADPH in 100 mM phosphate buffer, pH 7.4. For the NADPH regenerating system, the final incubations contained 1 μM test compound, 0.5 mg/mL liver microsomal protein, 3 mM glucose 6-phosphate, 1 mM NADP, 3 mM MgCl2 and 0.05 mg/mL glucose 6-phosphate dehydrogenase in 100 mM phosphate buffer, pH 7.4. After incubation times of 0, 3, 6, 9, 15 and 30 minutes at 37° C., 50 μL samples was removed and transferred to 150 μL methanol solution which was maintained at 4° C. containing 2 μM tolbutamide (internal standard) to terminating the reaction. Following precipitation and centrifugation, the amount of compound remaining in the samples were determined by LC-MS/MS. Controls of no NADPH or NADPH regenerating system at zero and 30 min were also prepared and analyzed.

[3] = HepG2.2.15 cells, in-house data, read-out: EC50

| SMILES | EC50 (HBV; [3]) [nM] | solubility thermodynamic [1] [µg/mL] | Human Hepatic Clearance [2] [mL/min/kg] | EC50 (HBV; HepG2.2.15) [nM] |
| --- | --- | --- | --- | --- |
| CCOC(=O)C1=C(CN2CC(F)(F)C[C@H]2C(=O)O)NC(c2nccs2)=NC1c1ccc(F)c(F)c1Cl (stereo in doubt) [Example 55, (R)-6-((S)-2-Carboxy-4,4-difluoro-pyrrolidin-1-ylmethyl)-4-(2-chloro-3,4-difluoro-phenyl)-2-thiazol-2-yl-1,4-dihydro-pyrimidine-5-carboxylic acid ethyl ester] | 1 | > 670 | – | – |
| COC(=O)C1=C(CN2CCSCC2C(=O)O)NC(c2nccs2)=N[C@H]1c1ccc(F)cc1Cl (stereo in doubt) [Example 91, (3S)-4-[[(4R)-4-(2-Chloro-4-fluoro-phenyl)-5-methoxycarbonyl-2-thiazol-2-yl-1,4-dihydropyrimidin-6-yl]methyl]thiomorpholine-3-carboxylic acid] | 38 | 584 (≈ 1140 µM) | 1.62 | – |
| COC(=O)C1=C(CN2CCOC[C@H]2C(=O)O)NC(c2nc(C)cn2C)=NC1c1ccc(F)cc1Cl (stereo in doubt) [Example 92, (S)-4-[(S)-6-(2-Chloro-4-fluoro-phenyl)-2-(1,4-dimethyl-1H-imidazol-2-yl)-5-methoxycarbonyl-3,6-dihydro-pyrimidin-4-ylmethyl]-morpholine-3-carboxylic acid] | 14 | > 602 | 1.26 | – |
| COC(=O)C1=C(CN2CC(F)(F)C[C@H]2C(=O)O)NC(c2ncc(F)cc2F)=N[C@H]1c1ccc(F)cc1Cl [Example 4, (R)-6-((S)-2-Carboxy-4,4-difluoro-pyrrolidin-1-ylmethyl)-4-(2-chloro-4-fluoro-phenyl)-2-(3,5-difluoro-pyridin-2-yl)-1,4-dihydro-pyrimidine-5-carboxylic acid methyl ester] | 1.5 | > 700 | 5.11 | – |
| COC(=O)C1=C(CN2C[C@H](C(=O)O)CC(F)(F)C2)NC(c2nccs2)=N[C@H]1c1ccc(F)cc1Cl [Example 14, (R)-6-((R)-5-Carboxy-3,3-difluoro-piperidin-1-ylmethyl)-4-(2-chloro-4-fluoro-phenyl)-2-thiazol-2-yl-1,4-dihydro-pyrimidine-5-carboxylic acid methyl ester] | 41 | > 644 | 1.41 | – |
| COC(=O)C1=C(CN2CC(F)(F)C[C@H]2C(=O)O)NC(c2cc(Cl)cs2)=N[C@H]1c1ccc(F)cc1Cl [Example 23, (R)-6-((S)-2-Carboxy-4,4-difluoro-pyrrolidin-1-ylmethyl)-4-(2-chloro-4-fluoro-phenyl)-2-(4-chloro-thiophen-2-yl)-1,4-dihydro-pyrimidine-5-carboxylic acid methyl ester] | 25 | 172 (≈ 314 µM) | 8.8 | – |
| COC(=O)C1=C(CN2CC(F)(F)C[C@H]2C(=O)O)NC(c2ncccc2C)=N[C@H]1c1ccc(F)cc1Cl [Example 24, (R)-6-((S)-2-Carboxy-4,4-difluoro-pyrrolidin-1-ylmethyl)-4-(2-chloro-4-fluoro-phenyl)-2-(3-methyl-pyridin-2-yl)-1,4-dihydro-pyrimidine-5-carboxylic acid methyl ester] | 26 | 656 (≈ 1250 µM) | 3.19 | – |
| COC(=O)C1=C(CN2CC(F)(F)C[C@H]2C(=O)O)NC(c2nccs2)=N[C@H]1c1ccc(Br)cc1Cl [Example 29, (R)-4-(4-Bromo-2-chloro-phenyl)-6-((S)-2-carboxy-4,4-difluoro-pyrrolidin-1-ylmethyl)-2-thiazol-2-yl-1,4-dihydro-pyrimidine-5-carboxylic acid methyl ester] | 28 | 420 (≈ 729 µM) | 7.65 | – |
| CCOC(=O)C1=C(CN2CCOC[C@H]2C(=O)O)NC(c2nccs2)=N[C@H]1c1ccc(Cl)cc1Cl [Example 39, (S)-4-[(R)-6-(2,4-Dichloro-phenyl)-5-ethoxycarbonyl-2-thiazol-2-yl-3,6-dihydro-pyrimidin-4-ylmethyl]-morpholine-3-carboxylic acid] | – | > 654 | 7.18 | 1.1 |
| COC(=O)C1=C(CN2CCOC[C@H]2C(=O)O)NC(c2nccs2)=N[C@H]1c1ccc(Br)c(F)c1F [Example 45, (5)-4-[(R)-6-(4-Bromo-2,3-difluoro-phenyl)-5-methoxycarbonyl-2-thiazol-2-yl-3,6-dihydro-pyrimidin-4-ylmethyl]-morpholine-3-carboxylic acid] | 28 | > 695 | 4.69 | – |
| CCOC(=O)C1=C(CN2CC(F)(F)C[C@H]2C(=O)O)NC(c2nccs2)=N[C@H]1c1ccc(C#N)cc1 [Example 48, (S)-6-((S)-2-Carboxy-4,4-difluoro-pyrrolidin-1-ylmethyl)-4-(4-cyano-phenyl)-2-thiazol-2-yl-1,4-dihydro-pyrimidine-5-carboxylic acid ethyl ester] | 28 | > 635 | 3.12 | – |
| CCOC(=O)C1=C(CN2CC(F)(F)C[C@H]2C(=O)O)NC(c2nccn2C)=N[C@H]1c1ccc(F)c(F)c1 [Example 56, (S)-6-((S)-2-Carboxy-4,4-difluoro-pyrrolidin-1-ylmethyl)-4-(3,4-difluoro-phenyl)-2-(1-methyl-1H-imidazol-2-yl)-1,4-dihydro-pyrimidine-5-carboxylic acid ethyl ester] | 15 | > 645 | 2.44 | – |
| COC(=O)C1=C(CN2CCOC[C@@]2(C)C(=O)O)NC(c2nccs2)=N[C@H]1c1ccc(F)c(F)c1Cl [Example 78, (S)-4-[(R)-6-(2-Chloro-3,4-difluoro-phenyl)-5-methoxycarbonyl-2-thiazol-2-yl-3,6-dihydro-pyrimidin-4-ylmethyl]-3-methyl-morpholine-3-carboxylic acid] | 26 | > 653 | 3.22 | – |
| COC(=O)C1=C(CN2C[C@H](C(=O)O)CC(F)(F)C2)NC(c2nc(C)cs2)=N[C@H]1c1ccc(F)cc1Cl [Example 80, (R)-6-((R)-5-Carboxy-3,3-difluoro-piperidin-1-ylmethyl)-4-(2-chloro-4-fluoro-phenyl)-2-(4-methyl-thiazol-2-yl)-1,4-dihydro-pyrimidine-5-carboxylic acid methyl ester] | 27 | 518 (≈ 954 µM) | 4.27 | – |
| CCCOC(=O)C1=C(CN2CCOC[C@H]2C(=O)O)NC(c2nccs2)=N[C@H]1c1ccc(F)cc1Cl [Example 99, (S)-4-[6-(2-Chloro-4-fluoro-phenyl)-5-propoxycarbonyl-2-thiazol-2-yl-3,6-dihydro-pyrimidin-4-ylmethyl]-morpholine-3-carboxylic acid] | 12 | > 677 | 2.13 | – |
| CC(C)OC(=O)C1=C(CN2CCOC[C@H]2C(=O)O)NC(c2nccs2)=N[C@H]1c1ccc(F)c(F)c1 [Example 100, (S)-4-[(S)-6-(3,4-Difluoro-phenyl)-5-isopropoxycarbonyl-2-thiazol-2-yl-3,6-dihydro-pyrimidin-4-ylmethyl]-morpholine-3-carboxylic acid] | 35 | > 656 | 0.1 | – |
